Reference: PubChem BioAssay AID1982 (Sanford-Burnham Center for Chemical Genomics, 2009)
Active and inactive are the calls of the source. How the calls were made is not given here.

Assays:
Assay in all cases: kinase panel binding selectivity, selectivity assay, biochemical, KINOMEscan (AID 1982)
ACVR1 = conditions: KINOMEscan 353-kinase binding panel, qPCR, at 10 µM, hits give low values
BIKE = conditions: KINOMEscan 353-kinase binding panel, qPCR, at 10 µM, hits give low values
BMPR1A = conditions: KINOMEscan 353-kinase binding panel, qPCR, at 10 µM, hits give low values
CAMK1G = conditions: KINOMEscan 353-kinase binding panel, qPCR, at 10 µM, hits give low values
CDC2L1 = conditions: KINOMEscan 353-kinase binding panel, qPCR, at 10 µM, hits give low values
[1] = target: Cyclin-dependent kinase 5 (Homo sapiens) (UniProt Q00535); conditions: KINOMEscan 353-kinase binding panel, qPCR; CDK5; at 10 µM; hits give low values
DDR1 = conditions: KINOMEscan 353-kinase binding panel, qPCR, at 10 µM, hits give low values
[2] = target: Death-associated protein kinase 3 (Homo sapiens) (UniProt O43293); conditions: KINOMEscan 353-kinase binding panel, qPCR; DAPK3; at 10 µM; hits give low values
[3] = target: Dual specificity protein kinase CLK2 (Homo sapiens) (UniProt P49760); conditions: KINOMEscan 353-kinase binding panel, qPCR, at 10 µM, hits give low values
EPHA6 = conditions: KINOMEscan 353-kinase binding panel, qPCR, at 10 µM, hits give low values
EPHA8 = conditions: KINOMEscan 353-kinase binding panel, qPCR, at 10 µM, hits give low values
EPHB3 = conditions: KINOMEscan 353-kinase binding panel, qPCR, at 10 µM, hits give low values
[4] = target: Epidermal growth factor receptor (Homo sapiens) (UniProt P00533); conditions: KINOMEscan 353-kinase binding panel, qPCR, at 10 µM, hits give low values
GAK = conditions: KINOMEscan 353-kinase binding panel, qPCR, at 10 µM, hits give low values
HIPK1 = conditions: KINOMEscan 353-kinase binding panel, qPCR, at 10 µM, hits give low values
[5] = target: Inhibitor of nuclear factor kappa-B kinase subunit alpha (Homo sapiens) (UniProt O15111); conditions: KINOMEscan 353-kinase binding panel, qPCR; IKK-alpha; at 10 µM; hits give low values
[6] = target: Inhibitor of nuclear factor kappa-B kinase subunit beta (Homo sapiens) (UniProt O14920); conditions: KINOMEscan 353-kinase binding panel, qPCR; IKK-beta; at 10 µM; hits give low values
[7] = target: Insulin-like growth factor 1 receptor (Homo sapiens) (UniProt P08069); conditions: KINOMEscan 353-kinase binding panel, qPCR; IGF1R; at 10 µM; hits give low values
[8] = target: MAP/microtubule affinity-regulating kinase 4 (Homo sapiens) (UniProt Q96L34); conditions: KINOMEscan 353-kinase binding panel, qPCR; MARK4; at 10 µM; hits give low values
MKNK1 = conditions: KINOMEscan 353-kinase binding panel, qPCR, at 10 µM, hits give low values
PCTK2 = conditions: KINOMEscan 353-kinase binding panel, qPCR, at 10 µM, hits give low values
PCTK3 = conditions: KINOMEscan 353-kinase binding panel, qPCR, at 10 µM, hits give low values
PIK3CD = conditions: KINOMEscan 353-kinase binding panel, qPCR, at 10 µM, hits give low values
PKMYT1 = conditions: KINOMEscan 353-kinase binding panel, qPCR, at 10 µM, hits give low values
[9] = target: Platelet-derived growth factor receptor alpha (Homo sapiens) (UniProt P16234); conditions: KINOMEscan 353-kinase binding panel, qPCR; PDGFRA; at 10 µM; hits give low values
[10] = target: Protein-tyrosine kinase 2-beta (Homo sapiens) (UniProt Q14289); conditions: KINOMEscan 353-kinase binding panel, qPCR; PTK2B; at 10 µM; hits give low values
RPS6KA1(Kin.Dom.2) = conditions: KINOMEscan 353-kinase binding panel, qPCR, at 10 µM, hits give low values
RPS6KA6(Kin.Dom.1) = conditions: KINOMEscan 353-kinase binding panel, qPCR, at 10 µM, hits give low values
[11] = target: Receptor tyrosine-protein kinase erbB-4 (Homo sapiens) (UniProt Q15303); conditions: KINOMEscan 353-kinase binding panel, qPCR; ERBB4; at 10 µM; hits give low values
SNF1LK = conditions: KINOMEscan 353-kinase binding panel, qPCR, at 10 µM, hits give low values
[12] = target: Serine/threonine-protein kinase B-raf (Homo sapiens) (UniProt P15056); conditions: KINOMEscan 353-kinase binding panel, qPCR, at 10 µM, hits give low values
TLK1 = conditions: KINOMEscan 353-kinase binding panel, qPCR, at 10 µM, hits give low values
[13] = target: Tyrosine-protein kinase Lck (Homo sapiens) (UniProt P06239); conditions: KINOMEscan 353-kinase binding panel, qPCR, at 10 µM, hits give low values
[14] = target: Wee1-like protein kinase (Homo sapiens) (UniProt P30291); conditions: KINOMEscan 353-kinase binding panel, qPCR, at 10 µM, hits give low values
YANK3 = conditions: KINOMEscan 353-kinase binding panel, qPCR, at 10 µM, hits give low values

Epidermal growth factor receptor (Homo sapiens), sequence (P00533 whole entry, looked up): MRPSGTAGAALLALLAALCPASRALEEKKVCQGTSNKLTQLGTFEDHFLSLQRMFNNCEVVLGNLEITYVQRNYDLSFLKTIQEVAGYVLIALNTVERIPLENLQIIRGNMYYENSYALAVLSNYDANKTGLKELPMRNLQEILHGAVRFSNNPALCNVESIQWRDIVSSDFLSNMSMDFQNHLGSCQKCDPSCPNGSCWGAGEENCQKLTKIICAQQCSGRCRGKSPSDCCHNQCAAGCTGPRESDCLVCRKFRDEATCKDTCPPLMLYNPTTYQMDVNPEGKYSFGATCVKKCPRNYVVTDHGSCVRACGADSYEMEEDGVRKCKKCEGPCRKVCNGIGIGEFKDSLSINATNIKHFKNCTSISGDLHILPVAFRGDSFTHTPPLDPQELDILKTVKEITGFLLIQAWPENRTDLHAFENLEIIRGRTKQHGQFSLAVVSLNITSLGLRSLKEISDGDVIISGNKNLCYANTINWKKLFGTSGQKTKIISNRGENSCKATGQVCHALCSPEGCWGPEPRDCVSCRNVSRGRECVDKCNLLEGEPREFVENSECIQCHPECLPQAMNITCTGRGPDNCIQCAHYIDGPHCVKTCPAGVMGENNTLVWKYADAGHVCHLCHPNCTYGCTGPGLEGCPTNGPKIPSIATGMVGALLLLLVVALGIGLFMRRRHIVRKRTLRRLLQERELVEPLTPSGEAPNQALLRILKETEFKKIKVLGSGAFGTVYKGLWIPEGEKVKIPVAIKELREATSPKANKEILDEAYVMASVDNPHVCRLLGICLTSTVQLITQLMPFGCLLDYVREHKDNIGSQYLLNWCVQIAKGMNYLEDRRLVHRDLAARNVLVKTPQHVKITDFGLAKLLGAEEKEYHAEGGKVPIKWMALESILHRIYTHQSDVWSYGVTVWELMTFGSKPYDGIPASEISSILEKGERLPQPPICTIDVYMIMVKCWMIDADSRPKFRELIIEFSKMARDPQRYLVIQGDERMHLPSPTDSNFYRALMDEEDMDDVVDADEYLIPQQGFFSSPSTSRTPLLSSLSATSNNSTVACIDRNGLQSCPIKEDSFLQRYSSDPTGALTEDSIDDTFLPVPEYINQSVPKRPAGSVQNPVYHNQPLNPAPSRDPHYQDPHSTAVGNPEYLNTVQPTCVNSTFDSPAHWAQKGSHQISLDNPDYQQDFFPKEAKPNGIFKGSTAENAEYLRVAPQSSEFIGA
Serine/threonine-protein kinase B-raf (Homo sapiens), sequence (P15056 whole entry, looked up): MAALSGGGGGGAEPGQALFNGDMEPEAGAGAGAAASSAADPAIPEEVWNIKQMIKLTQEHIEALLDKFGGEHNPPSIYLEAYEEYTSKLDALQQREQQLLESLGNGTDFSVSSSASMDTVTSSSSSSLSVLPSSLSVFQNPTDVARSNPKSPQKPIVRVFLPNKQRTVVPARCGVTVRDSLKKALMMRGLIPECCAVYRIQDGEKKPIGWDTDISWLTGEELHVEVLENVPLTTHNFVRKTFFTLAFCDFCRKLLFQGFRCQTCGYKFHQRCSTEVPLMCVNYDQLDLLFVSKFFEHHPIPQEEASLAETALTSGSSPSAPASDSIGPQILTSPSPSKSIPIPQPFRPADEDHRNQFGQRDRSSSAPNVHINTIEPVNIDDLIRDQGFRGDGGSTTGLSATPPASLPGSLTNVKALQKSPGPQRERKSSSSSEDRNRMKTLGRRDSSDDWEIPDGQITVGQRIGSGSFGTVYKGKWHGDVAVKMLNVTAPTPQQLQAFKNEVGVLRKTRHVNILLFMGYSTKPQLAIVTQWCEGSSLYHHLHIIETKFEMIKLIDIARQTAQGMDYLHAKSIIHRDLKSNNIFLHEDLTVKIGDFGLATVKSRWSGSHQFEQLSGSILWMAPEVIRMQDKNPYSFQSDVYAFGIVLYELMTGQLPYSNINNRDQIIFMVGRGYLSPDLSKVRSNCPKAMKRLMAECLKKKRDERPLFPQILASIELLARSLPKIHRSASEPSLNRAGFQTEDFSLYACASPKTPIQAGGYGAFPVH
Platelet-derived growth factor receptor alpha (Homo sapiens), sequence (P16234 whole entry, looked up): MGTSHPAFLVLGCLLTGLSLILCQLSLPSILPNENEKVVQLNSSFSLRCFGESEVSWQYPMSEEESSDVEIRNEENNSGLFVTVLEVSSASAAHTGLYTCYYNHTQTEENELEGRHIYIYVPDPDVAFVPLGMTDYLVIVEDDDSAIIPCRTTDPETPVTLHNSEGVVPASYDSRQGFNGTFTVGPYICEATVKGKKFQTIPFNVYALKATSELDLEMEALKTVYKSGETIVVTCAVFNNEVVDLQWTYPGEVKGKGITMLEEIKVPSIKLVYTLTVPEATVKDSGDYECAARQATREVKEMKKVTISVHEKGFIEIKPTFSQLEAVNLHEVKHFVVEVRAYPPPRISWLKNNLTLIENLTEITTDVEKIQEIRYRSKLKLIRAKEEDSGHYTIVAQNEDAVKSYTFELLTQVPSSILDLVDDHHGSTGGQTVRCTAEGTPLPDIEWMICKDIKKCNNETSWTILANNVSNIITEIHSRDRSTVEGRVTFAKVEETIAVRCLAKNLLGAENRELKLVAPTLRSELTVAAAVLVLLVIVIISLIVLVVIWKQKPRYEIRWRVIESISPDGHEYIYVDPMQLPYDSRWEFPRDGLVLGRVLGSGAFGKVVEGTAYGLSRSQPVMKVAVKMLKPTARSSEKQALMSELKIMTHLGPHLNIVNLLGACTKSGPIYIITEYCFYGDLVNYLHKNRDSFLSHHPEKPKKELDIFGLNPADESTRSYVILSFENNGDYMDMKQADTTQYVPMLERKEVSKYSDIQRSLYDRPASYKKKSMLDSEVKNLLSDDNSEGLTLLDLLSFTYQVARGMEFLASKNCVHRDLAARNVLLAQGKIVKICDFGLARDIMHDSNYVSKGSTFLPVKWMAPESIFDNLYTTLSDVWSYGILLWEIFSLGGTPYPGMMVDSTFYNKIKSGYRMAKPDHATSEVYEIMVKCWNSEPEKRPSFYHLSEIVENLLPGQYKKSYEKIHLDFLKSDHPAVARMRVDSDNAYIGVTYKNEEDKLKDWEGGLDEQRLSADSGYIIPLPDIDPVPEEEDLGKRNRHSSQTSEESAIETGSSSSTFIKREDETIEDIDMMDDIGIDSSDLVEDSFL
Receptor tyrosine-protein kinase erbB-4 (Homo sapiens), sequence (Q15303 whole entry, looked up): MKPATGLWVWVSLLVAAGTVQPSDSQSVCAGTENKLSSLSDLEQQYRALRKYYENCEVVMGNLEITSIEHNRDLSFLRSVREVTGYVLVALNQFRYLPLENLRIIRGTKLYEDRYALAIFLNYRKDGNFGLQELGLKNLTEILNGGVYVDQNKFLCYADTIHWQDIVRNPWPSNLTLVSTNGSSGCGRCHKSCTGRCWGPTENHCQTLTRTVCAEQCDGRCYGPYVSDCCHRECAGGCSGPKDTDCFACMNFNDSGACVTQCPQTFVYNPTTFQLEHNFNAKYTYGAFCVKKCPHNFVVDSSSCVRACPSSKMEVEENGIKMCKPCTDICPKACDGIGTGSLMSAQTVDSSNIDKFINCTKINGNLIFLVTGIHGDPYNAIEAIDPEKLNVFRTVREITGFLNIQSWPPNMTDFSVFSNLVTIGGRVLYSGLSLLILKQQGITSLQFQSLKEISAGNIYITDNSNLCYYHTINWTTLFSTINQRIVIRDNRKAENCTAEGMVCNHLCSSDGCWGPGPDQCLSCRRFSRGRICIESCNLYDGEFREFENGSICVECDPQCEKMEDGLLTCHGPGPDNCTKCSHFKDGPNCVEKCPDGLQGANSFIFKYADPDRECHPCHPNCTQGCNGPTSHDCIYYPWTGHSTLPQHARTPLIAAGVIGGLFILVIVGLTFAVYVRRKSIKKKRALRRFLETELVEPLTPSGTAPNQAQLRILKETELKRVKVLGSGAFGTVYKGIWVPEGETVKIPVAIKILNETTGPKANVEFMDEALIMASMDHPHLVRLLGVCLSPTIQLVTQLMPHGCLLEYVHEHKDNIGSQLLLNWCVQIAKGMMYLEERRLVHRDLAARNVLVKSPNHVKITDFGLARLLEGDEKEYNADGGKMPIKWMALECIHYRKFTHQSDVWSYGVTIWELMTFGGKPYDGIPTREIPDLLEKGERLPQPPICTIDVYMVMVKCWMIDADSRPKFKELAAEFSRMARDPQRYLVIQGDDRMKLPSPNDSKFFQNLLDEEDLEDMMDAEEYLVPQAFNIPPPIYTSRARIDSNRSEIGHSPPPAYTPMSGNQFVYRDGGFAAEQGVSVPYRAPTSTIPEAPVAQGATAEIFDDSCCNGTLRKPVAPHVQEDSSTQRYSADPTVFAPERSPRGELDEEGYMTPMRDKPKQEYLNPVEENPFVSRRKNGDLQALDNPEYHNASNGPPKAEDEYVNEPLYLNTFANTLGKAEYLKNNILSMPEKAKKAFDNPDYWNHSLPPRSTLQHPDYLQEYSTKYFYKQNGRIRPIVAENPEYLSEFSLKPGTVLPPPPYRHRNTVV
Dual specificity protein kinase CLK2 (Homo sapiens), sequence (P49760 whole entry, looked up): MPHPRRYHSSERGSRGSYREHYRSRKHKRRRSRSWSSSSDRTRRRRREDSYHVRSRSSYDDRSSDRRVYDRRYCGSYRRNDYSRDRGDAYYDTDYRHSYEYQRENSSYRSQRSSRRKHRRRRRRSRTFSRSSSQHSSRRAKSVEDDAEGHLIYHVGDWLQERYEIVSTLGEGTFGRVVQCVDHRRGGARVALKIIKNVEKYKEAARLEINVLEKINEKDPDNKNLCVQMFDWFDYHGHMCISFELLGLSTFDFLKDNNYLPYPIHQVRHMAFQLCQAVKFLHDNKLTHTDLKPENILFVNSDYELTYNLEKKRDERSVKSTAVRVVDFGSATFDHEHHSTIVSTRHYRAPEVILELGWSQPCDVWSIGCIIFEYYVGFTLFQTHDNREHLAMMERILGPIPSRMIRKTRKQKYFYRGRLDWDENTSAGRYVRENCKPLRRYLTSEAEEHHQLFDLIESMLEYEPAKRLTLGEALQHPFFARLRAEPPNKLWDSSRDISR

percent of control binding (ACVR1): 89% (inactive)
percent of control binding (BIKE): 98% (inactive)
percent of control binding (BMPR1A): 97% (inactive)
percent of control binding (CAMK1G): 88% (inactive)
percent of control binding (CDC2L1): 81% (inactive)
percent of control binding [1]: 76% (inactive)
percent of control binding (DDR1): 100% (inactive)
percent of control binding [3]: 80% (inactive)
percent of control binding (EPHA6): 93% (inactive)
percent of control binding (EPHA8): 88% (inactive)
percent of control binding (EPHB3): 86% (inactive)
percent of control binding ([4]; EGFR(E746-A750del)): 100% (inactive)
percent of control binding ([4]; EGFR(G719C)): 89% (inactive)
percent of control binding ([4]; EGFR(G719S)): 100% (inactive)
percent of control binding ([4]; EGFR(L747-E749del, A750P)): 87% (inactive)
percent of control binding ([4]; EGFR(L747-S752del, P753S)): 100% (inactive)
percent of control binding ([4]; EGFR(L747-T751del,Sins)): 97% (inactive)
percent of control binding ([4]; EGFR(L858R)): 77% (inactive)
percent of control binding ([4]; EGFR(L861Q)): 59% (inactive)
percent of control binding ([4]; EGFR(S752-I759del)): 100% (inactive)
percent of control binding ([4]; EGFR): 86% (inactive)
percent of control binding (GAK): 90% (inactive)
percent of control binding (HIPK1): 100% (inactive)
percent of control binding [5]: 74% (inactive)
percent of control binding [6]: 78% (inactive)
percent of control binding [7]: 54% (inactive)
percent of control binding [8]: 98% (inactive)
percent of control binding (MKNK1): 75% (inactive)
percent of control binding (PCTK2): 99% (inactive)
percent of control binding (PCTK3): 82% (inactive)
percent of control binding (PIK3CD): 65% (inactive)
percent of control binding (PKMYT1): 100% (inactive)
percent of control binding [9]: 86% (inactive)
percent of control binding [10]: 100% (inactive)
percent of control binding (RPS6KA1(Kin.Dom.2)): 93% (inactive)
percent of control binding (RPS6KA6(Kin.Dom.1)): 97% (inactive)
percent of control binding [11]: 100% (inactive)
percent of control binding (SNF1LK): 100% (inactive)
percent of control binding ([12]; BRAF(V600E)): 70% (inactive)
percent of control binding ([12]; BRAF): 88% (inactive)
percent of control binding (TLK1): 30%
percent of control binding [13]: 100% (inactive)
percent of control binding [14]: 90% (inactive)
percent of control binding (YANK3): 100% (inactive)
Structure (SMILES): Cc1cc2nc(NCCCO)n(CC(=O)c3cc(C(C)(C)C)c(O)c(C(C)(C)C)c3)c2cc1C
percent of control binding [2]: 100% (inactive)
